Assays:
[1] = target: T1, Serine/threonine-protein kinase mTOR (Homo sapiens, UniProt P42345)
[2] = test system: Splenocyte; experiment: Immunosuppressive activity in BDF1 mouse Splenocyte assessed as inhibition of concanavalin A induced T-cell proliferation incubated for 72 hrs by [3H]-thymidine incorporation based liquid scintillation counter analysis; format: functional
[3] = test system: Cortical neurone; experiment: Neuroprotective activity in rat Primary cortical neuron assessed as increase in neurite outgrowth incubated for 72 hrs by cellomics array-scan assay; format: functional, cell-based
[4] = test system: Cortical neurone; experiment: Neuroprotective activity in rat Primary cortical neuron assessed as increase in neuronal survival by measuring neurofilament incubated for 72 hrs by ELISA; format: functional, cell-based
[5] = target: Phosphatidylinositol 4,5-bisphosphate 3-kinase catalytic subunit alpha isoform (Homo sapiens, UniProt P42336); experiment: Inhibition of PIK3alpha (unknown origin) expressed in baculovirus assessed as inhibition constant using PIP2 as substrate in presence of [gamma-32P]ATP incubated for 30 mins by scintillation proximity assay
Phosphatidylinositol 4,5-bisphosphate 3-kinase catalytic subunit alpha isoform, sequence (P42336 whole entry, canonical isoform): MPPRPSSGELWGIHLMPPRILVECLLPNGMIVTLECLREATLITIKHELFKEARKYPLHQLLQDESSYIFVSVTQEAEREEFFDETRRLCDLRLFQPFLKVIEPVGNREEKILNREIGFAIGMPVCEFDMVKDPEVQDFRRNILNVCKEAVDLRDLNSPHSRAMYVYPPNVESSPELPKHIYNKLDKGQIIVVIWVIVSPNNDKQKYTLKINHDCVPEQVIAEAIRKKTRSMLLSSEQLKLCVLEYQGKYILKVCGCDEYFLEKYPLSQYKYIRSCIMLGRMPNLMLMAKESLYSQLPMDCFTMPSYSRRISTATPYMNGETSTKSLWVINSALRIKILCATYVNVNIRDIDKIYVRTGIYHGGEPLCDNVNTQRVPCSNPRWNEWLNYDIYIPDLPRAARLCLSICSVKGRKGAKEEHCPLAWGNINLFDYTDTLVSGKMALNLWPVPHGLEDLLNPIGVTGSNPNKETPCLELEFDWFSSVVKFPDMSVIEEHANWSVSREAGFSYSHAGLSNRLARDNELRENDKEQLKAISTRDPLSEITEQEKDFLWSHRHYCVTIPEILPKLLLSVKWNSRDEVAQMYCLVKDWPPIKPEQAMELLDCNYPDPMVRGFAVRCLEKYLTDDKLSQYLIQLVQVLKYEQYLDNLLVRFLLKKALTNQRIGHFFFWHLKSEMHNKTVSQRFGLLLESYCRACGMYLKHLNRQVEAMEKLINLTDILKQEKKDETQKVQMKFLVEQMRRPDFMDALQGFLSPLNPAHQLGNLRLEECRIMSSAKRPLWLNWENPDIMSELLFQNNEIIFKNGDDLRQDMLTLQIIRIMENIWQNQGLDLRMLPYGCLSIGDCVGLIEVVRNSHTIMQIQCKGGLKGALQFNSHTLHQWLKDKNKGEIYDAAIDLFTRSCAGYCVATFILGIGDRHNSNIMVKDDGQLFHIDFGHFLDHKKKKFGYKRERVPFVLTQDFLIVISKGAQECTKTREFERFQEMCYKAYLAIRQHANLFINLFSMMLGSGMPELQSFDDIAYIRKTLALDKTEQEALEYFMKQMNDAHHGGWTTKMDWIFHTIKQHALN

[6] = target: T1, Serine/threonine-protein kinase mTOR; experiment: Inhibition of mTOR (unknown origin) assessed as inhibition constant using GFP-4EBP1 as substrate by Lanthascreen based time resolved fluorescence based assay
[7] = target: T1, Serine/threonine-protein kinase mTOR; experiment: Binding affinity to mTOR (unknown origin) assessed as dissociation constant by measuring pKd
[8] = target: Serine/threonine-protein kinase mTOR (Rattus norvegicus, UniProt P42346); experiment: Inhibition of mTOR in rat brain by […] immunoblot assay; format: tissue-based
[9] = target: mTORC2 (Homo sapiens, UniProt P42345); experiment: Inhibition of mTORC2 in human LN-229 cells assessed as decrease in phosphorylation of AKT at Ser473 level incubated for 24 hrs by immunoblot assay; format: cell-based
[10] = Inhibition of DNAPK in human HCT-116 cells preincubated for 1 hr followed by UV radiation and measured after 1 hr by Bradford assay based immunoblotting analysis; format: cell-based

With COc1cccc2cc(-c3nc(C4CCC(C(=O)O)CC4)n4ncnc(N)c34)[nH]c12 (stereo unspecified) the IC50 [1] was 4 nM.
Molecule CO[C@@H]1C[C@H](C[C@@H](C)[C@@H]2CC(=O)[C@H](C)/C=C(\C)[C@@H](O)[C@@H](OC)C(=O)[C@H](C)C[C@H](C)/C=C/C=C/C=C(\C)[C@@H](OCc3ccccc3)C[C@@H]3CC[C@@H](C)[C@@](O)(O3)C(=O)C(=O)N3CCCC[C@H]3C(=O)O2)CC[C@H]1O has an IC50 [2] of 6 nM.
CO[C@H]1C[C@@H]2CC[C@@H](C)[C@@](O)(O2)C(=O)C(=O)N2CCCC[C@H]2C(=O)O[C@H]([C@H](C)C[C@@H]2CC[C@@H](O)[C@H](OC)C2)CC(=O)[C@H](C)/C=C(\C)[C@@H](O)[C@@H](OC)C(=O)[C@H](C)C[C@H](C)C2C=CC(/C=C/1C)ON2c1ccccc1 gave an EC50 [3] of 420 nM and an EC50 [4] of 700 nM.
With O=C(O[C@@H]1Cc2c(O)cc(O)cc2O[C@@H]1c1cc(O)c(O)c(O)c1)c1cc(O)c(O)c(O)c1 [EPIGALOCATECHIN GALLATE] the Ki [5] was 380 nM and the Ki [6] was 320 nM.
Molecule CO[C@@H]1C[C@H](C[C@@H](C)[C@@H]2CC(=O)[C@H](C)/C=C(\C)[C@@H](O)[C@@H](OC)C(=O)[C@H](C)C[C@H](C)/C=C/C=C/C=C(\C)CC[C@@H]3CC[C@@H](C)[C@@](O)(O3)C(=O)C(=O)N3CCCC[C@H]3C(=O)O2)CC[C@H]1O has an IC50 [2] of 2 nM.
In the case of CNc1ncnn2c(C3CCC(C(=O)O)CC3)nc(-c3cc4cccc(OC5CCOC5)c4[nH]3)c12 (stereo unspecified), the Kd [7] is reported as 204 nM.
Molecule COC[C@H]1OC(=O)c2coc3c2[C@@]1(C)C1=C(C3=O)[C@@H]2CCC(=O)[C@@]2(C)C[C@H]1OC(C)=O [WORTMANNIN] has an IC50 [8] of 300 nM.
In the case of CC1CN(C(=O)Nc2ccc(Cl)c(Cl)c2)/C(=N/c2cccc(F)c2)S1 (stereo unspecified), the IC50 [9] is reported as 310 nM.
In the case of Nc1ccc(-c2ccc3ncc4ccc(=O)n(-c5cccc(C(F)(F)F)c5)c4c3c2)cn1, the IC50 [10] is reported as under 10 nM.

Source: ChEMBL document CHEMBL5230127, “Research progress of mTOR inhibitors” (Eur J Med Chem, 2020)
